Assay results published in patent publication US8053441B2, “Pyrazolylquinazolinones as potassium channel openers” (Janssen Pharmaceutica N.V., priority 2006, dated 2011).

target: T1, KATP channels (Homo sapiens, UniProt O60706+Q14654); assay: Potassium Channel Assay (FLIPR membrane potential); type: cell-based; set-up: key: A compound was designated as active if it produced greater than or equal to 10% response at 30 μM; A compound was designated as inactive if it produced less than 10% response at 30 μM; conditions: TE671 human medulloblastoma cells, 30 μM, Membrane Potential Assay Dye
T1 construct: TE671 human medulloblastoma cells were obtained from ATCC; host or cells: TE671 human medulloblastoma cells
Protocol: TE671 human medulloblastoma cells were obtained from ATCC and grown in Dulbecco's modified Eagle's medium (DMEM) supplemented with 10% fetal bovine serum, 100 U/ml penicillin and 100 U/ml streptomycine.
The day before testing, the cells were plated in black 96-well plates at 50K/well. On the day of testing, the growth media was removed, then 100 μl of FLIPR buffer (20 mM HEPES, 120 mM NaCl, 2 mM KCl, 2 mM CaCl2, 1 mM MgCl2, 5 mM Glucose) and 100 μl of Membrane Potential Assay Dye (Molecular Devices) dissolved in FLIPR buffer were added to each well. The cells were incubated at room temperature for 15 to 30 min.
The effect of test compounds on KATP channels were evaluated on a fluorometric imaging plate reader (FLIPR, Molecular Devices) at room temperature. After a baseline period, 50 μl of 5× stock solution of test compound prepared in FLIPR buffer was added and fluorescent change was monitored for 3 minutes. After this reading, glyburide, a KATP channel blocker, was added to a final concentration of 5 μM to check the specificity of the test compound as a KATP channel openers. Hyperpolarization resulting from KATP channel opening was observed as a decrease in fluorescent intensity.
Representative compounds of the present invention were tested according to the procedure described above, with results as listed in Table 2 below. Test compound activity was determined as the percent. A compound was designated as active if it produced greater than or equal to 10% response at 30 μM.

T1 sequence (O60706 1-1549 isoform O60706-2): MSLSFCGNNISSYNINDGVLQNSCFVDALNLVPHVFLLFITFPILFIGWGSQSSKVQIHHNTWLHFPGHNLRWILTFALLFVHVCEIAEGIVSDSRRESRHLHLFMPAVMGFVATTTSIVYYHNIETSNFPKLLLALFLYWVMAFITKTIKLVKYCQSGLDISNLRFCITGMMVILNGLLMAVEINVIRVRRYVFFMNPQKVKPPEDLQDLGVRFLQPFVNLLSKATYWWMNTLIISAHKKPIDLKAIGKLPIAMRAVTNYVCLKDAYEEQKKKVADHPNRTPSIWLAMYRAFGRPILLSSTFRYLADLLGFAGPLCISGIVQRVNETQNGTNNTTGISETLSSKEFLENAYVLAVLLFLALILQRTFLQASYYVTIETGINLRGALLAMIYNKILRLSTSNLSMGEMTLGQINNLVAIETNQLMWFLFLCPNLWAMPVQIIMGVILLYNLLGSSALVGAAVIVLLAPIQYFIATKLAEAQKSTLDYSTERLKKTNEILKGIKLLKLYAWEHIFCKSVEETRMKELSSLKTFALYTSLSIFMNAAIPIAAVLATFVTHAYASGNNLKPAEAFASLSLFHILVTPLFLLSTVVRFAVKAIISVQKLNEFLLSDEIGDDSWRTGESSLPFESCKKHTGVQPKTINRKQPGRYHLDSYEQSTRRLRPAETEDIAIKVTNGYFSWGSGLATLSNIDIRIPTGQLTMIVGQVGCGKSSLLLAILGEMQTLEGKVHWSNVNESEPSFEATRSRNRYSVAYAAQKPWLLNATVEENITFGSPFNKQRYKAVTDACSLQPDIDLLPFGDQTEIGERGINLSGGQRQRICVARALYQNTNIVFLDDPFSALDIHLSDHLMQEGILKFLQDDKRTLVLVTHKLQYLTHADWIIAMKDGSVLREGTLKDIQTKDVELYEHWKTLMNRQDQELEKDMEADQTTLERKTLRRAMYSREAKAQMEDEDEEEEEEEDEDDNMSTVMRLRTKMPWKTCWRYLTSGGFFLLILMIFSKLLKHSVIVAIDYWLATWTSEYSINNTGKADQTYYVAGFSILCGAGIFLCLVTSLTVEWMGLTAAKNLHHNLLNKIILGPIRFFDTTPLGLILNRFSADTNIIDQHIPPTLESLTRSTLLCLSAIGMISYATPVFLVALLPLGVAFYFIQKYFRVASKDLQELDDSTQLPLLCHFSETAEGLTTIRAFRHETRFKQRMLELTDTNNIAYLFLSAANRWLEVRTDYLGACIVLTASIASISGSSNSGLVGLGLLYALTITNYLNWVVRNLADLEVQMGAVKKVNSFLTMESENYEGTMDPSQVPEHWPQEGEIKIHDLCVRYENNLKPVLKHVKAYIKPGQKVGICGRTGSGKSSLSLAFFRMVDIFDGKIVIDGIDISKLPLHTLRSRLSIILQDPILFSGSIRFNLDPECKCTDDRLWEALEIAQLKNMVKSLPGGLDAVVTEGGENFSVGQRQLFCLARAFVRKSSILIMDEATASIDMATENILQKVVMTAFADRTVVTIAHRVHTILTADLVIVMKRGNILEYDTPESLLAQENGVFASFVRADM
T1 sequence (Q14654 whole entry): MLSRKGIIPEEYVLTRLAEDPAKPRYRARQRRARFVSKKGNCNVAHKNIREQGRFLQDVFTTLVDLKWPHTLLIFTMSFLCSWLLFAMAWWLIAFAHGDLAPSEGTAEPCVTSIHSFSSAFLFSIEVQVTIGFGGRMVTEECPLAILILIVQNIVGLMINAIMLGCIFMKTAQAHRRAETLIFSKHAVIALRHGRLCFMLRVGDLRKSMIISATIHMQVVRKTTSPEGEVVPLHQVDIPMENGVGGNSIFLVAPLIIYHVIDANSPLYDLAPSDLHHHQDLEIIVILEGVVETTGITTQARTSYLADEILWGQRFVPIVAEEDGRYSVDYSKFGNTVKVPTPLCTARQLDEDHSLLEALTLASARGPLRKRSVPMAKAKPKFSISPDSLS

response, active:
CC1(c2nc3ccc(Cl)cc3c(=O)[nH]2)CC=NN1 (stereo not shown) [compound 1, 6-Chloro-2-(3-methyl-3,4-dihydro-2H-pyrazol-3-vi)-3H-quinazolin-4-one]
CC1(c2nc3ccc(Br)cc3c(=O)[nH]2)CC=NN1 (stereo not shown) [compound 2, 6-Bromo-2-(3-methyl-3,4-dihydro-2H-pyrazol-3-vi)-3H-quinazolin-4-one]
CC1(c2nc3cc(C(F)(F)F)ccc3c(=O)[nH]2)CC=NN1 (stereo not shown) [compound 3, 2-(3-Methyl-3,4-dihydro-2H-pyrazol-3-yl)-7-trifluoromethyl-3H-quinazolin-4-one]
CCOC(=O)C1=NNC(C)(c2nc3ccc(Cl)cc3c(=O)[nH]2)C1 (stereo not shown) [compound 4, 5-(6-Chloro-4-oxo-3,4-dihydro-quinazolin-2-yl)-5-methyl-4,5-dihydro-1H-pyrazole-3-carboxylic acid ethyl ester]
